We go through 57 compounds from the RepoRT retention time repository.

SMILES strings stand for the structures.

This data set is described as follows: HILIC, HILICON iHILIC-(P) Classic, HILIC, PEEK, 50 × 2.1 mm, 5 µm, 30 °C, 0.12 mL/min, estimated dead time 0.92 min; A: water + 20 mM ammonium carbonate; B: acetonitrile; gradient (min/%B) 0/80 1/80 21/20 21.5/20 26.5/20 27.5/80 35/80. The following applies: stereoisomer not certain.
For `NC(CCC(=O)NC(CSSCC(NC(=O)CCC(N)C(=O)O)C(=O)NCC(=O)O)C(=O)NCC(=O)O)C(=O)O` (configuration not stated) [GSSG], the LC retention time was 15.6 min.
`CC(=O)NC1C(OP(=O)(O)OP(=O)(O)OCC2OC(n3ccc(=O)[nH]c3=O)C(O)C2O)OC(CO)C(O)C1O` (configuration not stated) [UDP-GlcNAc]: the LC retention time is 11.9 min.
For `C=C(OP(=O)(O)O)C(=O)O` [PEP], the LC retention time is 13.6 min.
Turning to `NC(CCC(=O)O)C(=O)O` (configuration not stated) [Glutamic acid], the LC retention time was 10.2 min.
Take `O=C(O)CCCCC1SCC2NC(=O)NC21` (configuration not stated) [Biotin]: the LC retention time is 3.76 min.
For `NC(=O)C1=CN(C2OC(COP(=O)(O)OP(=O)(O)OCC3OC(n4cnc5c(N)ncnc54)C(OP(=O)(O)O)C3O)C(O)C2O)C=CC1` (configuration not stated) [NADPH] the value was 16.3 min; for `NC(Cc1c[nH]c2ccccc12)C(=O)O` (configuration not stated) [Tryptophan], 6.31 min.
Regarding `Nc1ncnc2c1ncn2C1OC(COP(=O)(O)OP(=O)(O)OP(=O)(O)O)C(O)C1O` (configuration not stated) [ATP], the LC retention time is 13.9 min.
For the compound `Nc1ncnc2c1ncn2C1OC(CO)C(O)C1O` (configuration not stated) [Adenosine], the LC retention time was 3.76 min.
For `Nc1ccn(C2OC(CO)C(O)C2O)c(=O)n1` (configuration not stated) [Cytidine], the LC retention time is 6.28 min.
As for `NC(CO)C(=O)O` (configuration not stated) [Serine], the LC retention time was 9.56 min.
With `O=P(O)(O)OCC(O)CO` (configuration not stated) [Glycerol-3-phosphate], the LC retention time is 10.9 min.
In the case of `CC(C)C(N)C(=O)O` (configuration not stated) [Valine], the LC retention time is 6.97 min.
For `O=C1OC(C(O)CO)C(O)=C1O` (configuration not stated) [Ascorbic Acid], the LC retention time is 9.51 min.
On to `CC(O)C(N)C(=O)O` (configuration not stated) [Threonine], for which the LC retention time was 8.47 min.
In the case of `O=C(O)CC(C(=O)O)C(O)C(=O)O` (configuration not stated) [Isocitric acid], the LC retention time was 15.8 min.
On to `CC(C)CC(N)C(=O)O` (configuration not stated) [Leucine], for which the LC retention time was 5.63 min.
Then `NC(=O)c1ccc[n+](C2OC(COP(=O)(O)OP(=O)(O)OCC3OC(n4cnc5c(N)ncnc54)C(OP(=O)(O)O)C3O)C(O)C2O)c1` (configuration not stated) [NADP], with 13.4 min.
As to `O=C(CO)COP(=O)(O)O` [Triose phosphate], the LC retention time is 11.5 min.
Then `Nc1nc2c(ncn2C2OC(COP(=O)(O)O)C(O)C2O)c(=O)[nH]1` (configuration not stated) [GMP], with 13.9 min.
Take `O=C(O)CC(O)(CC(=O)O)C(=O)O` [Citric acid]: the LC retention time was 16.5 min.
With `NC(=O)c1ccc[n+](C2OC(COP(=O)(O)OP(=O)(O)OCC3OC(n4cnc5c(N)ncnc54)C(O)C3O)C(O)C2O)c1` (configuration not stated) [NAD], the LC retention time is 9.43 min.
Take `Nc1ccn(C2OC(COP(=O)(O)O)C(O)C2O)c(=O)n1` (configuration not stated) [CMP]: the LC retention time was 10.8 min.
For `NCCCCC(N)C(=O)O` (configuration not stated) [Lysine], the LC retention time is 18.4 min.
Take `NC(=O)c1ccc[n+](C2OC(COP(=O)([O-])O)C(O)C2O)c1` (configuration not stated) [NMN]: the LC retention time is 9.99 min.
With `Cc1ncc(C[n+]2csc(CCO)c2C)c(N)n1` [Thiamine], the LC retention time was 12.7 min.
`Nc1ncnc2c1ncn2C1OC(COP(=O)(O)O)C(O)C1O` (configuration not stated) [AMP]: the LC retention time was 8.62 min.
For `O=c1ccn(C2OC(COP(=O)(O)OP(=O)(O)OP(=O)(O)O)C(O)C2O)c(=O)[nH]1` (configuration not stated) [UTP], the LC retention time was 14.1 min.
Turning to `NC(CSSCC(N)C(=O)O)C(=O)O` (configuration not stated) [Cystine], the LC retention time is 11.8 min.
As for `O=C(O)c1cccnc1` [Nicotinic acid], the LC retention time is 2.1 min.
`NC(=O)C1=CN(C2OC(COP(=O)(O)OP(=O)(O)OCC3OC(n4cnc5c(N)ncnc54)C(O)C3O)C(O)C2O)C=CC1` (configuration not stated) [NADH]: the LC retention time is 9.95 min.
Turning to `CC(O)C(=O)O` (configuration not stated) [Lactic Acid], the LC retention time was 3.22 min.
For `O=C(O)C1CCCN1` (configuration not stated) [Proline] the value was 7.48 min; for `CSCCC(N)C(=O)O` (configuration not stated) [Methionine], 6.99 min.
Take `Nc1nc2c(ncn2C2OC(COP(=O)(O)OP(=O)(O)OP(=O)(O)O)C(O)C2O)c(=O)[nH]1` (configuration not stated) [GTP]: the LC retention time was 16.9 min.
Take `O=C(O)CC(=O)O` [Malonic Acid]: the LC retention time is 9.63 min.
Take `NC(CCC(=O)NC(CS)C(=O)NCC(=O)O)C(=O)O` (configuration not stated) [GSH]: the LC retention time was 8.95 min.
For `CC(=O)NC(CC(=O)O)C(=O)O` (configuration not stated) [N-Acetylaspartic acid] the value was 9.49 min; for `O=C(O)C1(O)CC(O)C(O)C(O)C1` (configuration not stated) [Quinic Acid], 6.75 min.
`NC(Cc1ccccc1)C(=O)O` (configuration not stated) [Phenylalanine]: the LC retention time is 5.37 min.
For `NC(=O)CC(N)C(=O)O` (configuration not stated) [Asparagine], the LC retention time is 11.1 min.
For `Nc1nc2ncc(CNc3ccc(C(=O)NC(CCC(=O)O)C(=O)O)cc3)nc2c(=O)[nH]1` (configuration not stated) [Folic Acid], the LC retention time is 14.4 min.
On to `NCCCC(N)C(=O)O` (configuration not stated) [Ornithine], for which the LC retention time is 17.7 min.
In the case of `O=C(O)C(CO)OP(=O)(O)O` (configuration not stated) [Phosphoglyceric acid A], the LC retention time was 13.6 min.
Regarding `O=c1ccn(C2OC(COP(=O)(O)O)C(O)C2O)c(=O)[nH]1` (configuration not stated) [UMP], the LC retention time was 9.59 min.
As to `Nc1nc2c(ncn2C2OC(CO)C(O)C2O)c(=O)[nH]1` (configuration not stated) [Guanosine], the LC retention time was 7.27 min.
As to `O=C(O)CC(O)C(=O)O` (configuration not stated) [Malic Acid], the LC retention time is 13 min.
For `NC(Cc1ccc(O)cc1)C(=O)O` (configuration not stated) [Tyrosine], the LC retention time was 8.15 min.
As to `CC(=O)SCCNC(=O)CCNC(=O)C(O)C(C)(C)COP(=O)(O)OP(=O)(O)OCC1OC(n2cnc3c(N)ncnc32)C(O)C1OP(=O)(O)O` (configuration not stated) [Acetyl-CoA], the LC retention time is 8.59 min.
As for `Nc1ccn(C2OC(COP(=O)(O)OP(=O)(O)O)C(O)C2O)c(=O)n1` (configuration not stated) [CDP], the LC retention time is 13.2 min.
Regarding `O=C(O)CCC(=O)O` [Succinic Acid], the LC retention time was 12.1 min.
Consider `NC(=O)CCC(N)C(=O)O` (configuration not stated) [Glutamine], for which the LC retention time was 8.86 min.
On to `CCC(C)C(N)C(=O)O` (configuration not stated) [Isoleucine], for which the LC retention time is 6.75 min.
For `Nc1nc2c(ncn2C2OC(COP(=O)(O)OP(=O)(O)O)C(O)C2O)c(=O)[nH]1` (configuration not stated) [GDP] the value was 14.8 min; for `O=c1ccn(C2OC(COP(=O)(O)OP(=O)(O)O)C(O)C2O)c(=O)[nH]1` (configuration not stated) [UDP], 12.3 min; for `Nc1ncnc2nc[nH]c12` [Adenine], 3.84 min.
For `Nc1ncnc2c1ncn2C1OC(COP(=O)(O)OP(=O)(O)O)C(O)C1O` (configuration not stated) [ADP] the value was 12.5 min.
